In patent US8716342B2, “Method for preparing molecular complexes between adapalene and cyclodextrins” (Galderma Research & Development, priority 2009, dated 2014):

Test: Kinetics of dissolution at 3 g/l and at 25° C. in water (adapalene solubilized, HPLC; pH of the solution at the end)
Assay type: physicochemical
Protocol: b) Kinetics of Dissolution at 3 g/l and at 25° C.
The chromatographic conditions and the concentrations of the control solutions are the same as those of the assay.
• Stirring: 15-position bench • Thermostated bath: 25° C. +/−2° C. verified on Prolabo PR 531 probe • HPLC Waters 2690-Detector 2487/2996 • Weighing out: Sartorius A200 balance • Dilutions: Eppendorf Research 1000, Eppendorf Research 5000, Gilson M1000 micropipette • Ultrapure water station: ELGA Operating conditions:
A test sample equivalent to 150 mg of Adapalene is introduced into a 100 ml Erlenmeyer flask. 50 ml of water are added. The mixture is stirred magnetically at 400 rpm or position 4 in a waterbath at 25° C. +/−2° C. A 2 ml sample is withdrawn at 15, 30, 60, 120 and 1140 minutes, while stirring magnetically. These withdrawn samples are filtered through 0.45 μm Gelman GHP Acrodisc polypropylene filters. The solution must be clear. The withdrawn samples are diluted by a factor “a” in the mobile phase, making it possible to have an Adapalene peak of surface area included between the surface areas of Control 1 and Control 5.
10 μl of each control solution are injected. A linear regression of the surface areas of the Adapalene peaks relative to the concentrations is performed.
10 μl of the solution to be examined are injected.
The area of the Adapalene peak in each solution to be examined is measured.
The concentration X in μg/ml is deduced therefrom according to the regression line of the controls.
The concentration in μg of Adapalene solubilized per ml is calculated with the formula: [Adapalene] in μg/ml=X×a
The variation in the amount dissolved in μg/ml as a function of time is represented on a graph.
At the end of dissolution, the appearance is immediately noted and the pH of the solution immediately measured.

COc1ccc(-c2ccc3cc(C(=O)O)ccc3c2)cc1C12CC3CC(CC(C3)C1)C2 [Adapalene alone, 6-(3-(1-adamantyl)-4-methoxyphenyl)-2-naphthoic acid]
pH of dissolution, 15 minutes (15 minutes): (5.7)
pH of dissolution, 7 days (7 days): (5.7)
Dissolution, 15 minutes (maturation temperature 85° C., 15 minutes): 0 µg/mL
Dissolution, 7 days (maturation temperature 85° C., 7 days): 0 µg/mL
